# Test results published in US11351151B2, “Compound having anticancer activity and preparation method and application” (3D Medicines (Beijing) Co., Ltd., priority 2016, dated 2022).
# Columns and labels:
# Type in all cases: cell-based
# HEPG2 = test: Cell proliferation assay (Alamar Blue); conditions: Homo sapiens, 144 h; HEPG2 liver cancer cell line; 6 days
# Method in brief: (§1)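 6 d continuous exposure, 37 °C/5% CO2; 9 conc., 3.16× steps from 30 or 100 μM; n=2/conc. Readout resazurin fluor. 560/590 nm, 1–4 h dye. % inhib. normalised to 0%/100% inhibition controls → IC50 (4-param).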
# JHH4 = test: Cell proliferation assay (Alamar Blue); conditions: JHH-4, 144 h; JHH4 liver cancer cell line; 6 days
# Method in brief: as §1
# HLF = test: Cell proliferation assay (Alamar Blue); conditions: 144 h; HLF liver cancer cell line; 6 days
# Method in brief: as §1
# T.T = test: Cell proliferation assay (Alamar Blue); conditions: Homo sapiens, TT, 144 h; T.T tumor cell line; 6 days
# Method in brief: as §1
# 22RV1 = test: Cell proliferation assay (Alamar Blue); conditions: Homo sapiens, 144 h; 22RV1 tumor cell line; 6 days
# Method in brief: as §1
# MDA-MB-435S = test: Cell proliferation assay (Alamar Blue); conditions: Homo sapiens, 144 h; MDA-MB-435S tumor cell line; 6 days
# Method in brief: as §1
# JHH7 = test: Cell proliferation assay (Alamar Blue); conditions: 144 h; JHH7 liver cancer cell line; 6 days
# Method in brief: as §1
# [1] = test system: 54 commercial tumor cell lines; test: Cell proliferation assay (Alamar Blue), summary over the panel; conditions: in almost all tumor cell lines
# Experimental: 1. Instruments and Materials • Thermo 311 CO2 incubator; Haier biosafety cabinet; Molecular Devices microplate reader; Xiangyi brand L530 desktop low speed centrifuge; Olympus IX51 inverted fluorescence microscope, DMEM, RPMI 1640, MEM, DMEM/F12 1:1 medium, Fetal bovine serum, 0.25% trypsin solution, phosphate buffer (Thermo Fisher Shanghai Co., Ltd.); sigma dimethyl sulfoxide (DMSO), resazurin; 54 commercial tumor cell lines (including 26 liver cancer cell lines). Experimental drugs: compounds 1-12 and active drug Linifanib; chemotherapeutic drug Doxorubicin (HY-15142; Shanghai Qianyuan Biomedical Technology Co., Ltd.).
# 2. Experimental Methods • 2.1 Cultivation of different cell lines • 54 cell lines were cultured in a culture medium containing fetal bovine serum and placed in a 5% CO 2 incubator at 37° C. for incubation. The cells were all grown in an adherent state, and the growth was observed under an inverted microscope, and subculture was performed when the cell confluence rate reached 80%-90%. The proportion and quantity of passage were determined by experimental needs. The ratio of subculture of this cell line was generally 1:2^˜1:3. • 2.2 inhibition effect on the proliferation of different tumor cell lines • Cell test: 54 cell lines in logarithmic growth phase were inoculated in 96-well culture plates at 500^˜1×10^4/well (the optimal seeding density of each cell line was determined in pre-experiment), After incubating at 37° C. for 4 h in a 5% CO2 humidification incubator, added 10 μL of compounds 1-12 or Linifanib to each well, and tested 9 drug concentration gradients for each compound (diluted from the highest concentration of the test by 3.16 times). The solubility of each compound was different at a starting concentration of 30 or 100 μM, respectively. The QC reference compound Doxorubicin was added simultaneously to each cell line test, and the final drug concentrations were 10, 3.16, 1, 0.31, 0.1, 0.03, 0.01, 0.003, and 0.001 μM, respectively. In addition, a positive control group (100% inhibition) and a negative control group (0% inhibition) were set at the same time. The drug group was repeated for 2 wells per concentration, and the positive control group and the negative control group were repeated for 6 wells. After the culture was continued for 6 days in the incubator, AlamarBlue test operation was followed; • AlamarBlue test procedure: Incubated with 10 μL of AlamarBlue reagent per well for 1-4 h, shook for 1-2 min, MD microplate reader EX: 560 nm, EM: 590 nm wavelength to measure fluorescence, recorded the results, calculated the cell inhibition rate of the compound of the invention. […]
Structure (SMILES),IC50 (HEPG2) [µM],IC50 (JHH4) [µM],IC50 (HLF) [µM],IC50 (T.T) [µM],IC50 (22RV1) [µM],IC50 (MDA-MB-435S) [µM],IC50 (JHH7) [µM],IC50 values compared with Linifanib [1]
Cc1ccc(F)c(NC(=O)Nc2ccc(-c3cccc4c3c(N)nn4C(=O)C[C@H](N)C(=O)N[C@@H](CCC(=O)N[C@@H](CCC(=O)N[C@@H](CCC(=O)N[C@@H](CCC(=O)N[C@@H](CCC(=O)N[C@@H](CCC(=O)N[C@@H](CCC(=O)N[C@@H](CCC(=O)N[C@@H](CCC(=O)O)C(=O)O)C(=O)O)C(=O)O)C(=O)O)C(=O)O)C(=O)O)C(=O)O)C(=O)O)C(=O)O)cc2)c1 [Compound 3],1.73,12.1,7.73,19.8,10.3,46.4,5.69,close to those of Linifanib
Cc1ccc(F)c(NC(=O)Nc2ccc(-c3cccc4c3c(N)nn4C(=O)C[C@H](N)C(=O)O)cc2)c1 [Compound 10],0.37,2.31,3.87,4.37,6.21,13.3,1.65,close to those of Linifanib
